Measurements: ChEMBL document CHEMBL3885861, “Open TG-GATES”

Species: Rattus norvegicus
Test: Open TG-GATES - Regimen: Single
Assay type: toxicity, organism-based, Sprague-Dawley
Design: regimen Single, gender Male, age 6 weeks
Details: in vivo, po, route gavage; for APTT / Bas / Eos / Fbg / Hb / Ht / Lym / MCH / MCHC / MCV / Mono / Neu / PT / Plat / RBC / Ret / WBC: tissue Blood; for KIDNEY_L / KIDNEY_R / KIDNEY_TOTAL: tissue Kidney; for LIVER: tissue Liver; for ALP / ALT / AST / BUN / CRE / DBIL / GLC / K / Na / PL / RALB / TBIL / TC / TG / TP / gamma-GTP: tissue Plasma
[1] = 0 mg/kg, 3 h, dose level Control
[2] = 0 mg/kg, 6 h, dose level Control
[3] = 0 mg/kg, 9 h, dose level Control
[4] = 0 mg/kg, 24 h, dose level Control

## CN1C(=O)CN=C(c2ccccc2)c2cc(Cl)ccc21 [DIAZEPAM]
[1]
  TERMINAL_BW: 214.4 g
  APTT: 15.9 s
  Bas: 0%
  Eos: 1%
  Fbg: 213.4 mg/dL
  Hb: 13.5 g/dL
  Ht: 40.5%
  Lym: 71.2%
  MCH: 22.3 pg
  MCHC: 33.3%
  MCV: 66.9 fL
  Mono: 8.6%
  Neu: 19.6%
  PT: 12.4 s
  Plat: 101 x10_4/uL
  RBC: 606 x10_4/ul
  Ret: 8.2%
  WBC: 109.8 x10_2/uL
  KIDNEY_L: 1 g
  KIDNEY_R: 1 g
  KIDNEY_TOTAL: 2 g
  LIVER: 10.2 g
  ALP: 836.4 IU/L
  ALT: 31.8 IU/L
  AST: 66.6 IU/L
  BUN: 14.2 mg/dL
  CRE: 0.5 mg/dL
  DBIL: 0.028 mg/dL
  GLC: 187.4 mg/dL
  K: 5.2 meq/L
  Na: 138.8 meq/L
  PL: 131.6 mg/dL
  RALB: 3.7 g/dL
  TBIL: 0.4 mg/dL
  TC: 71 mg/dL
  TG: 52.2 mg/dL
  TP: 5.5 g/dL
  gamma-GTP: 1.8 IU/L
[2]
  TERMINAL_BW: 213 g
  APTT: 16.6 s
  Bas: 0%
  Eos: 0.6%
  Fbg: 216 mg/dL
  Hb: 13.8 g/dL
  Ht: 41.8%
  Lym: 77.2%
  MCH: 21.4 pg
  MCHC: 33.1%
  MCV: 64.6 fL
  Mono: 6.4%
  Neu: 15.8%
  PT: 12.6 s
  Plat: 106.4 x10_4/uL
  RBC: 647 x10_4/ul
  Ret: 8.5%
  WBC: 105.2 x10_2/uL
  KIDNEY_L: 1 g
  KIDNEY_R: 1 g
  KIDNEY_TOTAL: 2 g
  LIVER: 9.6 g
  ALP: 878 IU/L
  ALT: 29.6 IU/L
  AST: 60 IU/L
  BUN: 9.8 mg/dL
  CRE: 0.5 mg/dL
  DBIL: 0.016 mg/dL
  GLC: 203 mg/dL
  K: 4.9 meq/L
  Na: 138.6 meq/L
  PL: 140 mg/dL
  RALB: 3.7 g/dL
  TBIL: 0.3 mg/dL
  TC: 74.8 mg/dL
  TG: 84.2 mg/dL
  TP: 5.6 g/dL
  gamma-GTP: 1.2 IU/L
[3]
  TERMINAL_BW: 212.8 g
  APTT: 15.7 s
  Bas: 0%
  Eos: 0.8%
  Fbg: 215.4 mg/dL
  Hb: 13.6 g/dL
  Ht: 41.5%
  Lym: 79.2%
  MCH: 21.7 pg
  MCHC: 32.8%
  MCV: 66 fL
  Mono: 5.6%
  Neu: 14.4%
  PT: 12.7 s
  Plat: 101.7 x10_4/uL
  RBC: 628.4 x10_4/ul
  Ret: 8.2%
  WBC: 117.7 x10_2/uL
  KIDNEY_L: 1 g
  KIDNEY_R: 1 g
  KIDNEY_TOTAL: 2 g
  LIVER: 9 g
  ALP: 712.4 IU/L
  ALT: 29 IU/L
  AST: 59.8 IU/L
  BUN: 10.6 mg/dL
  CRE: 0.6 mg/dL
  DBIL: 0.038 mg/dL
  GLC: 204 mg/dL
  K: 4.8 meq/L
  Na: 138.6 meq/L
  PL: 130.4 mg/dL
  RALB: 3.7 g/dL
  TBIL: 0.4 mg/dL
  TC: 75 mg/dL
  TG: 41.6 mg/dL
  TP: 5.5 g/dL
  gamma-GTP: 1.8 IU/L
[4]
  TERMINAL_BW: 227.4 g
  APTT: 16.7 s
  Bas: 0%
  Eos: 1%
  Fbg: 210.2 mg/dL
  Hb: 13.7 g/dL
  Ht: 41%
  Lym: 81.6%
  MCH: 21.9 pg
  MCHC: 33.4%
  MCV: 65.8 fL
  Mono: 5.8%
  Neu: 12.2%
  PT: 12.2 s
  Plat: 108.9 x10_4/uL
  RBC: 624.2 x10_4/ul
  Ret: 7.7%
  WBC: 114.5 x10_2/uL
  KIDNEY_L: 1.1 g
  KIDNEY_R: 1 g
  KIDNEY_TOTAL: 2.1 g
  LIVER: 11.2 g
  ALP: 817.8 IU/L
  ALT: 33.4 IU/L
  AST: 58.4 IU/L
  BUN: 15.2 mg/dL
  CRE: 0.5 mg/dL
  DBIL: 0.006 mg/dL
  GLC: 191.2 mg/dL
  K: 5.1 meq/L
  Na: 138.6 meq/L
  PL: 131.8 mg/dL
  RALB: 3.9 g/dL
  TBIL: 0.3 mg/dL
  TC: 63.2 mg/dL
  TG: 112.8 mg/dL
  TP: 5.8 g/dL
  gamma-GTP: 1 IU/L
25 mg/kg, 3 h, dose level Low
  TERMINAL_BW: 218.9 g
  APTT: 16.3 s
  Bas: 0%
  Eos: 1.2%
  Fbg: 227 mg/dL
  Hb: 13.9 g/dL
  Ht: 41.8%
  Lym: 76.6%
  MCH: 21.8 pg
  MCHC: 33.2%
  MCV: 65.8 fL
  Mono: 7.8%
  Neu: 14.8%
  PT: 12.4 s
  Plat: 98.7 x10_4/uL
  RBC: 636.6 x10_4/ul
  Ret: 8.7%
  WBC: 93.5 x10_2/uL
  KIDNEY_L: 1 g
  KIDNEY_R: 1 g
  KIDNEY_TOTAL: 1.9 g
  LIVER: 10.3 g
  ALP: 763.4 IU/L
  ALT: 30 IU/L
  AST: 57.8 IU/L
  BUN: 13.2 mg/dL
  CRE: 0.5 mg/dL
  DBIL: 0.018 mg/dL
  GLC: 195.4 mg/dL
  K: 5.3 meq/L
  Na: 139 meq/L
  PL: 150.2 mg/dL
  RALB: 3.7 g/dL
  TBIL: 0.4 mg/dL
  TC: 83.2 mg/dL
  TG: 66.2 mg/dL
  TP: 5.5 g/dL
  gamma-GTP: 2 IU/L
25 mg/kg, 6 h, dose level Low
  TERMINAL_BW: 216.1 g
  APTT: 16.3 s
  Bas: 0%
  Eos: 0.6%
  Fbg: 217 mg/dL
  Hb: 13.9 g/dL
  Ht: 42%
  Lym: 79.4%
  MCH: 21.6 pg
  MCHC: 33%
  MCV: 65.2 fL
  Mono: 5.6%
  Neu: 14.8%
  PT: 12.1 s
  Plat: 110.2 x10_4/uL
  RBC: 643.4 x10_4/ul
  Ret: 8.1%
  WBC: 117.8 x10_2/uL
  KIDNEY_L: 0.9 g
  KIDNEY_R: 1 g
  KIDNEY_TOTAL: 1.9 g
  LIVER: 9.8 g
  ALP: 989.8 IU/L
  ALT: 30.8 IU/L
  AST: 64.6 IU/L
  BUN: 12 mg/dL
  CRE: 0.5 mg/dL
  DBIL: 0.058 mg/dL
  GLC: 202.2 mg/dL
  K: 5.3 meq/L
  Na: 138.6 meq/L
  PL: 143.4 mg/dL
  RALB: 3.8 g/dL
  TBIL: 0.4 mg/dL
  TC: 77.2 mg/dL
  TG: 67.4 mg/dL
  TP: 5.7 g/dL
  gamma-GTP: 1 IU/L
25 mg/kg, 9 h, dose level Low
  TERMINAL_BW: 212.2 g
  APTT: 16.6 s
  Bas: 0%
  Eos: 0.6%
  Fbg: 229.8 mg/dL
  Hb: 13.8 g/dL
  Ht: 41.7%
  Lym: 78.8%
  MCH: 21.6 pg
  MCHC: 33%
  MCV: 65.4 fL
  Mono: 6.2%
  Neu: 14.4%
  PT: 12.2 s
  Plat: 102.9 x10_4/uL
  RBC: 638.2 x10_4/ul
  Ret: 7.5%
  WBC: 107.6 x10_2/uL
  KIDNEY_L: 1 g
  KIDNEY_R: 1 g
  KIDNEY_TOTAL: 2 g
  LIVER: 9.4 g
  ALP: 723.6 IU/L
  ALT: 26 IU/L
  AST: 57.2 IU/L
  BUN: 12.4 mg/dL
  CRE: 0.6 mg/dL
  DBIL: 0.044 mg/dL
  GLC: 212.6 mg/dL
  K: 4.8 meq/L
  Na: 139.6 meq/L
  PL: 142 mg/dL
  RALB: 3.9 g/dL
  TBIL: 0.3 mg/dL
  TC: 83.8 mg/dL
  TG: 44.8 mg/dL
  TP: 5.7 g/dL
  gamma-GTP: 1.6 IU/L
25 mg/kg, 24 h, dose level Low
  TERMINAL_BW: 227.7 g
  APTT: 16.3 s
  Bas: 0%
  Eos: 1%
  Fbg: 219.6 mg/dL
  Hb: 13.4 g/dL
  Ht: 40.4%
  Lym: 81%
  MCH: 21.7 pg
  MCHC: 33.1%
  MCV: 65.7 fL
  Mono: 5.6%
  Neu: 12.2%
  PT: 12.2 s
  Plat: 105.2 x10_4/uL
  RBC: 616 x10_4/ul
  Ret: 8.5%
  WBC: 100.5 x10_2/uL
  KIDNEY_L: 1 g
  KIDNEY_R: 1.1 g
  KIDNEY_TOTAL: 2.1 g
  LIVER: 11.2 g
  ALP: 1114.4 IU/L
  ALT: 33.8 IU/L
  AST: 63 IU/L
  BUN: 16.6 mg/dL
  CRE: 0.5 mg/dL
  DBIL: 0.016 mg/dL
  GLC: 185.6 mg/dL
  K: 5.1 meq/L
  Na: 140 meq/L
  PL: 152.8 mg/dL
  RALB: 3.7 g/dL
  TBIL: 0.3 mg/dL
  TC: 82.2 mg/dL
  TG: 108.6 mg/dL
  TP: 5.8 g/dL
  gamma-GTP: 1.2 IU/L
